Test results taken from article PMC8520055 (Asian Journal of Pharmaceutical Sciences, 2021).
Like-named read-outs stand apart in the source and are kept apart here. Each block holds one compound with its values, some of them ahead of it.

What was measured:
Pharmacokinetics of ATV [1] = format: in vivo, rats; details: for Plasma concentrations vs control rats: ATV 10 mg/kg p.o., rats treated with RIF 30 mg/kg i.v.
Pharmacokinetics of ATV [2] = format: in vivo, rats; details: for metabolite plasma concentrations vs control: ATV 10 mg/kg p.o., at 7.5, 15, 30 and 60 min after KTZ 20 mg/kg i.v.
[3] = plasma 4β-HC; cited from earlier work
[4] = Hepatic disposition of ATV and GCDCA-S in rats with ANIT-induced liver injury; format: in vivo; details: ANIT-induced liver injury (Fig. S15)
[5] = Plasma and hepatic concentration of KTZ after a single oral dose; format: in vivo, rats; details: for concentration at 1 h: rat, plasma, po; for Hepatic concentration: 1 h
Cyp3a [6] = assay: Endogenous Cyp3a markers; format: in vivo, rats
HepaRG cells [7] = assay: Metabolism of ATV and cholesterol in HepaRG cells in presence of KTZ; format: cell-based, human; details: KTZ 10 µM, HepaRG cells (Fig. S14)
Oatps [8] = assay: Hepatic uptake of ATV and GCDCA-S after 7 d oral RIF or KTZ; format: in vivo, rats; details: for hepatic uptake of ATV: inhibitor p.o. 7 d (RIF 30 mg/kg, KTZ 20 mg/kg), ATV 10 mg/kg p.o., 30 min
Liver function = format: in vivo, rats
Cyp3a [9] = assay: Plasma GCDCA-S, cholesterol and 4β-HC after intravenous KTZ
[10] = Plasma concentration of RIF after a single oral dose; format: in vivo, rats; details: rat
Oatps [11] = assay: Endogenous substrates of Oatps; format: in vivo, rats
HepaRG cells [12] = assay: Uptake of ATV and GCDCA-S in HepaRG cells in presence of RIF; format: cell-based; details: Homo sapiens
Oatps [13] = assay: Plasma GCDCA-S, cholesterol and 4β-HC after intravenous RIF; format: in vivo, rats
Oatps [14] = assay: Reversibility of RIF inhibition of GCDCA-S uptake; format: in vivo, rats; details: RIF 30 mg/kg p.o. 7 d, then 7-d washout
Oatps [15] = details: read-out: IC50 for Oatps in vitro; cited from earlier work
[16] = cited from earlier work
[17] = KTZ single oral dose 20-80 mg/kg
[18] = RIF 30-120 mg/kg single oral dose
[19] = RIF 30-120 mg/kg single oral dose, 2 h

Compound: CC(C)c1c(C(=O)Nc2ccccc2O)c(-c2ccccc2)c(-c2ccc(F)cc2)n1CCC(O)CC(O)CC(=O)O (stereo not drawn) [2-OH ATV, 2‑hydroxy-atorvastatin]
Plasma concentrations vs control rats (Pharmacokinetics of ATV [1]): markedly higher | metabolite plasma concentrations vs control (Pharmacokinetics of ATV [2]): significantly decreased

Compound: CC(C)c1c(C(=O)Nc2ccc(O)cc2)c(-c2ccccc2)c(-c2ccc(F)cc2)n1CC[C@@H](O)C[C@@H](O)CC(=O)O [4-OH ATV, 4‑hydroxy-atorvastatin]
Plasma concentrations vs control rats (Pharmacokinetics of ATV [1]): markedly higher | metabolite plasma concentrations vs control (Pharmacokinetics of ATV [2]): significantly decreased

Compound: CC(C)CCC[C@@H](C)[C@H]1CC[C@H]2[C@@H]3CC=C4[C@@H](O)[C@@H](O)CC[C@]4(C)[C@H]3CC[C@]12C [4β-HC, 4β-hydroxycholesterol]
half-life [3]: ~17 days

Compound: S=C=Nc1cccc2ccccc12 [ANIT, α-naphthylisothiocyanate]
liver mRNA level of Oatp [4]: decreased

More lines, main results first:

KTZ level (plasma) (Pharmacokinetics of ATV [2]; after single i.v. KTZ 20 mg/kg, over 0-360 min (Fig. S10)): above 1.5 µM | concentration at 1 h ([5]; 20 mg/kg): 23.9 µM | concentration at 1 h ([5]; 40 mg/kg): 31.4 µM | concentration at 1 h ([5]; 80 mg/kg): 49.6 µM | Hepatic concentration ([5]; single oral dose 20 mg/kg): 87.1 µmol/kg tissue | Hepatic concentration ([5]; single oral dose 40 mg/kg): 119.2 µmol/kg tissue | Hepatic concentration ([5]; single oral dose 80 mg/kg): 160.6 µmol/kg tissue | blood concentration of 6β-HC (Cyp3a [6]; KTZ multiple-dose 7 d): increased | plasma concentrations of 4β-HC (Cyp3a [6]; KTZ repeated oral dose 7 d, 20-80 mg/kg): markedly elevated | hepatic 6β-HC levels (Cyp3a [6]; [17]): dose-dependently decreased | plasma 6β-HC levels (Cyp3a [6]; [17]): not been influenced | Hepatic 4β-HC levels (Cyp3a [6]; KTZ single oral dose 20-80 mg/kg (Fig. S5)): significantly increased | plasma levels of cholesterol and its metabolite 4β-HC (Cyp3a [9]; after intravenous KTZ 20 mg/kg): not affected | plasma concentrations of GCDCA-S (Cyp3a [9]; after intravenous KTZ 20 mg/kg (Fig. S9)): not changed
Compound: CC(=O)N1CCN(c2ccc(OCC3COC(Cn4ccnc4)(c4ccc(Cl)cc4Cl)O3)cc2)CC1 (stereo not drawn) [KTZ, ketoconazole]
degradation ATV to 2-OH ATV and 4-OH ATV (HepaRG cells [7]): inhibited | formation of 4β-HC (HepaRG cells [7]): did not affect | hepatic uptake of ATV (Oatps [8]): minimally impacted | liver function (serum AST, ALT, ALP) (Liver function; KTZ 20, 40, 80 mg/kg single or multiple oral dose (Fig. S2)): not affect liver function

plasma RIF level (Pharmacokinetics of ATV [1]; after single i.v. RIF 30 mg/kg, over 0-360 min (Fig. S8)): above 5.5 µM | concentration at 2 h ([10]; 30 mg/kg): 11.6 µM | concentration at 2 h ([10]; 60 mg/kg): 22.4 µM | concentration at 2 h ([10]; 120 mg/kg): 26.5 µM | IC50 (HepaRG cells [12]; read-out: IC50 for uptake of ATV): 1 µM | IC50 (HepaRG cells [12]; read-out: IC50 for uptake of GCDCA-S): 9.8 µM
Compound: CO[C@H]1/C=C/O[C@@]2(C)Oc3c(C)c(O)c4c(O)c(c(/C=N/N5CCN(C)CC5)c(O)c4c3C2=O)NC(=O)/C(C)=C\C=C\[C@H](C)[C@H](O)[C@@H](C)[C@@H](O)[C@@H](C)[C@H](OC(C)=O)[C@@H]1C [RIF, rifampicin]
hepatic uptake of CP I/III (Oatps [11]; [18]): did not inhibit | plasma concentrations of CP I/III (Oatps [11]; [18]): did not affect | biosynthesis of GCDCA-S from GCDCA in the liver (Oatps [11]; RIF 30-120 mg/kg single oral dose (Fig. S3)): did not affect | hepatic uptake ratio of CA, GCA, GUDCA, TCDCA, TUDCA, THDCA, TLCA and GCDCA-S (Oatps [11]; [19]): decreased | plasma CA, CDCA, HDCA, GCA, GUDCA, TCDCA, TDCA, THDCA and GCDCA-S levels (Oatps [11]; [19]): dose-dependently increased | plasma concentrations of GCDCA-S (Oatps [13]; after intravenous RIF 30 mg/kg): significantly increased | plasma concentration of cholesterol and 4β-HC (Oatps [13]; after intravenous RIF 30 mg/kg (Fig. S7)): did not affect | hepatic uptake of GCDCA-S (Oatps [8]; RIF 30 mg/kg p.o. 7 d): decreased | plasma concentration of GCDCA-S (Oatps [8]; RIF 30 mg/kg p.o. 7 d): significantly increased | hepatic uptake of ATV (Oatps [8]): greatly attenuated | effect on the hepatic uptake of GCDCA-S after washout (Oatps [14]): fully reversed | plasma GCDCA-S level vs vehicle-treated rats after washout (Oatps [14]): not significant different | liver function (serum AST, ALT, ALP) (Liver function; RIF 30, 60, 120 mg/kg single oral dose (Fig. S2)): not affect liver function | IC50 (Oatps [15]): 0.14 to 1.7 µM | plasma unbound fraction [16]: 0.265
